# ± gives the standard deviation of the averaged measurements.
# Legend:
# Test in all cases: level (log10 ratio to DMSO vehicle control); higher = higher biomarker level / cell amount than vehicle control
# [1] = compound: OCC(F)(F)C(F)(F)C(F)(F)C(F)(F)C(F)(F)C(F)(F)C(F)(F)C(F)(F)C(F)(F)C(F)(F)C(F)(F)F [11:1 Fluorotelomer alcohol]; conditions: in DMSO
# Protocol: (§1)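 BioMAP Diversity Plus panel of 12 human primary cell co-culture systems (3C, 4H, LPS, SAg, BT, BF4T, BE3C, CASM3C, HDF3CGF, KF3CT, MyoF, Mphg). Compounds were added 1 h before stimulation and left for 24 h (MyoF 48 h; BT 72 h for soluble read-outs or 6 d for IgG). Biomarkers were read by ELISA, cytotoxicity by SRB, PBMC viability and proliferation by Alamar Blue. Each well value was divided by the mean of 8 DMSO control wells on the same plate and log10 transformed; duplicate blinded samples were tested at 4 concentrations.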
# [2] = compound: O=S(=O)(OCC(F)(F)F)C(F)(F)C(F)(F)C(F)(F)C(F)(F)F [2,2,2-Trifluoroethyl perfluorobutanesulfonate]; conditions: in DMSO
# Protocol: as §1
# [3] = compound: OCCCC(F)(F)C(F)(F)C(F)(F)C(F)(F)C(F)(F)C(F)(F)C(F)(F)C(F)(F)F [3-(Perfluorooctyl)propanol]; conditions: 6700 nM; in DMSO
# Protocol: as §1
# [4] = compound: CN(Cc1cnc2nc(N)nc(N)c2n1)c1ccc(C(=O)N[C@@H](CCC(=O)O)C(=O)O)cc1 [Methotrexate]; conditions: in DMSO
# Protocol: as §1
# [5] = compound: O=P(O)(O)CCC(F)(F)C(F)(F)C(F)(F)C(F)(F)C(F)(F)C(F)(F)F [2-(Perfluorohexyl)ethylphosphonic acid]; conditions: in DMSO
# Protocol: as §1
# [6] = compound: OCCCCC(F)(F)C(F)(F)C(F)(F)C(F)(F)F [4:4 Fluorotelomer alcohol]; conditions: in DMSO
# Protocol: as §1
# [7] = compound: O=C(O)C(F)(F)C(F)(F)C(F)(F)C(F)(F)C(F)(F)C(F)(F)C(F)(F)F [Perfluorooctanoic acid]; conditions: in DMSO
# Protocol: as §1
Test System,level (log10) ([1]; 1100 nM),level (log10) ([1]; 3300 nM),level (log10) ([1]; 10000 nM),level (log10) ([2]; 6700 nM),level (log10) ([2]; 20000 nM),level (log10) ([2]; 60000 nM),level (log10) [3],level (log10) ([4]; 1500 nM),level (log10) ([4]; 4400 nM),level (log10) ([4]; 13000 nM),level (log10) ([4]; 40000 nM),level (log10) ([5]; 6700 nM),level (log10) ([5]; 20000 nM),level (log10) ([5]; 60000 nM),level (log10) ([6]; 6700 nM),level (log10) ([6]; 20000 nM),level (log10) ([6]; 60000 nM),level (log10) ([7]; 6700 nM),level (log10) ([7]; 20000 nM),level (log10) ([7]; 60000 nM)
BT:B cell Proliferation,-0.103 ± 0.023,-0.144 ± 0.026,-0.44 ± 0.42,0.019 ± 0.0042,0.0295 ± 0.019,0.024 ± 0.023,-0.0025 ± 0.0064,-0.0915 ± 0.016,-0.1 ± 0.0085,-0.099 ± 0.0071,-0.052 ± 0.037,0.031 ± 0.0071,0.0135 ± 0.00071,0.051 ± 0.021,0.0045 ± 0.018,0.005 ± 0.027,-0.0015 ± 0.016,0.0195 ± 0.018,0.027 ± 0.021,0.097 ± 0.0099
LPS:CD69,0.006 ± 0.021,0.004,-0.003 ± 0.031,0.0015 ± 0.15,0.001 ± 0.088,-0.073 ± 0.16,-0.011 ± 0.016,-0.0175 ± 0.015,-0.035 ± 0.033,-0.0385 ± 0.044,-0.0175 ± 0.0092,-0.026 ± 0.075,0.001 ± 0.051,0.0815 ± 0.029,-0.0335 ± 0.016,-0.0135 ± 0.015,-0.0135 ± 0.015,0.0445 ± 0.096,0.0475 ± 0.046,-0.025 ± 0.092
BE3C:CD87/uPAR,-0.035 ± 0.0014,-0.0795 ± 0.012,-0.0385 ± 0.026,-0.048 ± 0.0099,-0.024 ± 0.018,-0.0355 ± 0.026,0.02 ± 0.047,0.0225 ± 0.005,-0.0145 ± 0.011,0 ± 0.016,0.0145 ± 0.015,-0.035 ± 0.065,-0.029 ± 0.047,-0.0125 ± 0.12,0.0075 ± 0.03,-0.025 ± 0.016,0.0065 ± 0.033,-0.039 ± 0.057,-0.028 ± 0.072,0.0245 ± 0.023
BF4T:CD54/ICAM-1,-0.0125 ± 0.005,-0.015 ± 0.018,-0.0015 ± 0.00071,-0.0115 ± 0.016,-0.014 ± 0.037,-0.0295 ± 0.016,-0.007 ± 0.016,0.001 ± 0.0099,-0.0135 ± 0.019,0.009 ± 0.0085,0.0095 ± 0.011,-0.022 ± 0.018,-0.0245 ± 0.00071,-0.0125 ± 0.0092,-0.0055 ± 0.0035,-0.0085 ± 0.011,0.0025 ± 0.0021,-0.0115 ± 0.0064,-0.0025 ± 0.012,-0.014 ± 0.028
SAg:CCL2/MCP-1,0.0095 ± 0.0078,-0.013 ± 0.044,0.0225 ± 0.039,0.0045 ± 0.0064,0.0045 ± 0.019,0.0405 ± 0.033,-0.0025 ± 0.021,-0.0055 ± 0.12,-0.037 ± 0.028,-0.009 ± 0.024,-0.0075 ± 0.05,0.0075 ± 0.0092,-0.006 ± 0.016,0.041,-0.009 ± 0.018,-0.002 ± 0.0042,-0.008 ± 0.027,0.0005 ± 0.0021,0.0025 ± 0.011,0.048 ± 0.0057
4H:CD106/VCAM-1,0.0285 ± 0.022,0.0115 ± 0.057,0.024 ± 0.038,-0.004 ± 0.025,-0.008 ± 0.014,0.0015 ± 0.0021,0.0065 ± 0.021,-0.0045 ± 0.018,-0.0095 ± 0.0021,0.005 ± 0.028,-0.0005 ± 0.011,0.0205 ± 0.0064,0.025 ± 0.0085,-0.01 ± 0.0028,0 ± 0.0057,-0.01 ± 0.0028,0.005 ± 0.0028,0.0045 ± 0.022,-0.001 ± 0.034,-0.0165 ± 0.039
LPS:sTNF-alpha,0.0075 ± 0.012,-0.0485 ± 0.013,-0.105 ± 0.08,-0.0075 ± 0.043,-0.0745 ± 0.076,-0.225 ± 0.018,-0.335 ± 0.2,0.0165 ± 0.033,0 ± 0.079,-0.045 ± 0.024,-0.0525 ± 0.069,0.008 ± 0.0085,0.0105 ± 0.026,0.007 ± 0.0042,0.0195 ± 0.11,0.0205 ± 0.12,0.0155 ± 0.14,0.032 ± 0.0099,0.0305 ± 0.021,0.0085 ± 0.013
3C:CXCL8/IL-8,-0.022 ± 0.027,-0.0245 ± 0.046,0.019 ± 0.082,0.0105 ± 0.012,0.014 ± 0.024,0.064 ± 0.071,-0.008 ± 0.013,0.035 ± 0.016,-0.0015 ± 0.059,0.0055 ± 0.023,0.042 ± 0.093,-0.0115 ± 0.05,-0.0035 ± 0.0021,0.0545 ± 0.03,-0.029 ± 0.0085,-0.031 ± 0.0057,0.0005 ± 0.0078,0.0295 ± 0.035,0.0585 ± 0.026,0.154 ± 0.0057
SAg:CXCL9/MIG,-0.004 ± 0.03,-0.0175 ± 0.035,0.012 ± 0.03,0.0035 ± 0.015,-0.004 ± 0.0014,0 ± 0.013,-0.0205 ± 0.0078,0.0095 ± 0.0035,0 ± 0.035,0.006 ± 0.034,-0.003 ± 0.027,0.0025 ± 0.0035,-0.012,0.0005 ± 0.022,0.0015 ± 0.0021,-0.006 ± 0.0071,0.0045 ± 0.012,-0.0085 ± 0.0021,-0.008 ± 0.0028,0.004 ± 0.017
BE3C:CXCL8/IL-8,-0.086 ± 0.011,-0.158 ± 0.055,-0.0975 ± 0.042,0.001 ± 0.0071,-0.0035 ± 0.026,0.0225 ± 0.021,-0.046 ± 0.011,0.0795 ± 0.069,0.035 ± 0.089,0.053 ± 0.057,0.048 ± 0.11,-0.064 ± 0.017,-0.0635 ± 0.0064,-0.0555 ± 0.06,-0.013 ± 0.016,-0.0155 ± 0.0021,0.029 ± 0.04,-0.029 ± 0.055,-0.0165 ± 0.057,-0.0385 ± 0.0035
BE3C:HLA-DR,-0.0755 ± 0.037,-0.141 ± 0.015,-0.163 ± 0.0042,-0.001 ± 0.011,0.005 ± 0.0085,-0.011 ± 0.0014,-0.01 ± 0.023,-0.0105 ± 0.00071,-0.0235 ± 0.0064,0.013 ± 0.011,-0.0145 ± 0.022,-0.0045 ± 0.018,-0.012 ± 0.021,0.01 ± 0.038,-0.0005 ± 0.018,-0.0075 ± 0.0064,-0.0035 ± 0.016,-0.023 ± 0.0042,-0.0225 ± 0.023,-0.013 ± 0.034
SAg:PBMC Cytotoxicity,-0.233 ± 0.016,-0.266 ± 0.02,-0.268 ± 0.076,0.0065 ± 0.011,-0.013,0.012 ± 0.0057,-0.003 ± 0.023,-0.001 ± 0.017,0.0015 ± 0.023,0.011 ± 0.018,0.0005 ± 0.0035,-0.019 ± 0.023,0.012 ± 0.037,-0.0165 ± 0.026,-0.0115 ± 0.015,0.014 ± 0.011,0.0195 ± 0.03,0.0195 ± 0.0021,0.022 ± 0.0085,0.042 ± 0.016
BF4T:MMP-3,0.008 ± 0.0014,0.009 ± 0.0057,0.0435 ± 0.035,-0.012 ± 0.0085,-0.0055 ± 0.0035,0.02 ± 0.037,0.018 ± 0.03,0.0045 ± 0.025,-0.0285 ± 0.018,-0.012 ± 0.031,0.015 ± 0.024,-0.0205 ± 0.005,-0.0125 ± 0.022,-0.002 ± 0.023,0.0075 ± 0.021,0.017 ± 0.041,0.0295 ± 0.067,-0.007 ± 0.018,0.007 ± 0.0028,0.023 ± 0.021
BT:sTNF-alpha,-0.057 ± 0.031,-0.127 ± 0.0064,-0.0825 ± 0.079,0.11 ± 0.076,0.165 ± 0.0021,0.189 ± 0.026,-0.0805 ± 0.029,-0.067 ± 0.072,-0.137 ± 0.11,-0.0565 ± 0.023,-0.0905 ± 0.1,0.114 ± 0.04,0.0475 ± 0.018,0.048 ± 0.24,-0.0875 ± 0.033,-0.046 ± 0.13,-0.0085 ± 0.17,0.0755 ± 0.044,0.097 ± 0.047,0.166 ± 0.11

# — the supplement of paper PMC10331698
